Test results reported in paper PMC12723470, “Heteromultivalent Nanogels as Highly Potent Inhibitors of Pseudomonas Aeruginosa” (Angewandte Chemie (International Ed. in English), 2025).

Test system: 72 h mature P. aeruginosa biofilm
Experiment: Mature biofilm eradication assay
Type: cell-based, Pseudomonas aeruginosa
Settings: 24 h treatment
Protocol: Inspired by the results of planktonic bactericidal experiments, we further evaluated the anti‐biofilm activity of the nanogels. […] This observation further reinforces our hypothesis that heteromultivalent nanogels with glyco‐residues and the BMAP‐18 peptide contribute to the long‐term eradication of P. aeruginosa. Further, a mature biofilm eradication assay was performed. […] More than 99.9% biofilm‐coated P. aeruginosa were inactivated (Figure 4a and S10). […] Overall, biofilm inhibition experiments with different control NG, NG‐Fuc/Gal and PNG‐Fuc/Gal reveal that PNG‐Fuc/‐Gal decomposes biofilm by a binding and killing mechanism. First, they bind with bacteria surface lectins via their specific sugar ligands and then inactivate using their surface BMAPs leading to a strong reduction in the biofilm matrix.
Figure 4 a) P. aeruginosa biofilm matrix visualization after 72 h of treatment with samples (red: biofilm matrix, scale bar = 20 µm), b) Biofilm coated‐ P. aeruginosa viability after 12 h treatment of samples. c) Mature P. aeruginosa biofilm visualization after 12 h of treatment with samples, and statistics for thickness and roughness (mean ± SD, n = 7), d) Mature P. aeruginosa biofilm visualization after 24 h of treatment with samples, and statistics for thickness and roughness (mean ± SD, n = 7). 0.01 <*p< […], 0.001 <**p < 0.01, ***p < 0.001, compared with Control group.

NC[C@H]1O[C@H](O[C@H]2[C@H](O)[C@@H](O[C@H]3O[C@H](CO)[C@@H](O)[C@H](N)[C@H]3O)[C@H](N)C[C@@H]2N)[C@H](N)C[C@@H]1O [tobramycin] was tested, and the “change of mature biofilm when treatment extended from 12 h to 24 h” value was “did not show significant changes”.
